“And” between values parts separate entries of the source, which are not always exact repeats. Equal values may be shown once.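 Exposure lasted 48 hours, with cells grown in 96-well plates and compounds tested at five concentrations. The concentration for 50% growth inhibition is given as GI50. Definition used: TGI = concentration required for complete inhibition of growth.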 Where only a bound is given, the exact number is not on record here.

For one assay, the system named is T-47D breast. Put plainly: growth of human tumour cells (NCI), 48 h.
The compound `O=C(Cl)C1=C(c2ccccc2)C1c1ccccc1` (centres undefined) came in with a TGI of over 100 µM.

With `O=C(/C=C/c1cccc(O)c1)c1cccc(-n2cc(-c3ccc4ccccc4c3)[nH]c2=O)c1`, the GI50 is 1.11 µM and the TGI was 3.84 µM.

With `c1cnn2ncc(-c3ccnc(Nc4ccc5c(c4)OCCO5)n3)c2c1`, the GI50 was 0.084 µM and the TGI came to 0.495 µM.

For the compound `Cc1ccc(-n2nc(C(C)(C)C)cc2NC(=O)NCc2cc(F)ccc2Oc2ccc3c(cnn3CCO)c2)cc1`, the GI50 is 3.79 µM and 3.76 µM; the TGI is > 10 µM and 32.7 µM.

`Cc1cc(C)n(C2=NS(=O)(=O)c3ccccc3N2C)n1` displayed a TGI of over 100 µM.

Turning to `COc1cccc2c(=O)c3c(sc12)c(NCCCNCCO)nc1ccccc13`, the GI50 was 1.48 µM and the TGI amounted to 3.48 µM.

`O=C1c2cccc3cccc(c23)C(=O)N1O`: the TGI is over 100 µM.

Regarding `O=C(O)c1ccccc1C(=O)c1ccc2c(c1)Cc1ccccc1-2`, the TGI is over 100 µM.

Turning to `C=CC1=C(C)C2=NC1=CC1=NC(=CC3=C(C)C4=C(O)[C@H](C(=O)OC)C(=C5NC(=C2)[C@@H](C)[C@@H]5CCC(=O)O)C4=N3)C(CC)=C1C`, the TGI is 62.4 µM.

As for `COc1ccc(Nc2nccc(N3CCN(c4c5ccc(Cl)cc5nc5ccc(OC)cc45)CC3)n2)cc1`, the GI50 is 2.99 µM and the TGI is 44.7 µM.

As to `CC(=Nc1ccc(S(N)(=O)=O)cc1)c1c(O)[nH]c2ccccc12`, the GI50 is over 8.37 µM and the TGI is over 25 µM.

As for `CCn1c(-c2nonc2N)nc2ccncc21`, the GI50 is over 25 µM and the TGI is over 25 µM.

For the compound `CC(C)[O-].CC(C)[O-].CN(CCN(C)Cc1cc(F)cc(F)c1[O-])Cc1cc(F)cc(F)c1[O-].[Ti+4]`, the GI50 is 0.416 µM and the TGI is 8.31 µM.

Turning to `Clc1ccc2c(c1)N(c1ncnc3ccc(-c4cnc5[nH]ncc5c4)cc13)CC2`, the GI50 was 0.0424 µM and the TGI worked out at 0.693 µM.

For `O=C1/C(=C/c2ccc([N+](=O)[O-])cc2)COc2ccc(O)cc21`, the GI50 was 9.73 µM and the TGI was over 100 µM.

Turning to `CC(C)Oc1ccc(C(=O)Cn2ccnc2)cc1-n1c(CN2CCN(C(=O)COc3ccc(Cl)cc3)CC2)nc2ccccc2c1=O`, the GI50 is 14.3 µM and the TGI was over 95.4 µM.

For the compound `COc1cccc(COc2cc(-n3cnc4ccccc43)sc2C(N)=O)c1`, the GI50 was over 25 µM and the TGI was over 25 µM.

Turning to `CCN(CC)c1ccc(/C=C/C2=[N+](C)c3ccccc3C2(C)C)c(C)c1`, the GI50 is under 0.0272 µM and the TGI was determined as 1.61 µM.

In the case of `Fc1ccc2nc(-c3cc(-c4ccc5c(c4)OCO5)n[nH]3)[nH]c2c1`, the GI50 is 3.31 µM and the TGI is 52.1 µM.

For the compound `COC(=O)c1ccc2c(c1)C(=O)c1c-2n(CCCN=[N+]=[N-])c(=O)c2cc([N+](=O)[O-])ccc12`, the GI50 is over 100 µM and the TGI is over 100 µM.

For the compound `O=C(c1cccs1)C1NO[N+]([O-])=C1c1cccs1` (centres undefined), the GI50 was 2.2 µM and the TGI stood at 5.09 µM.

`CN1c2ccccc2SC2C(c3ccccc3)=NOC21` (centres undefined) returned a TGI of 94.3 µM.

As for `CCOC(=O)N1CCN(CCCCCOc2ccccc2C2CCCCC2)CC1`, the GI50 was 2.35 µM and the TGI was found to be 14.4 µM.

In the case of `CCCCCCCCCCCCCC[n+]1cccc(C(N)=O)c1`, the GI50 was 4.66 µM and the TGI was determined as 27.6 µM.

In the case of `[2H]c1nc(=Nc2cc(NC(=O)C=C)c(N(C)CCN(C)C)cc2OC)[nH]c(-c2cn(C([2H])([2H])[2H])c3ccccc23)c1[2H]`, the GI50 was 1.07 µM and the TGI stood at 2.83 µM.

A further assay relates to SK-OV-3 ovarian. Put plainly: growth of human tumour cells (NCI), 48 h.
Turning to `O=C(Cl)C1=C(c2ccccc2)C1c1ccccc1` (centres undefined), the TGI is over 100 µM.

With `O=C(/C=C/c1cccc(O)c1)c1cccc(-n2cc(-c3ccc4ccccc4c3)[nH]c2=O)c1`, the GI50 is 2.15 µM and the TGI was 6.73 µM.

As for `c1cnn2ncc(-c3ccnc(Nc4ccc5c(c4)OCCO5)n3)c2c1`, the GI50 is 0.178 µM and the TGI was over 25 µM.

Consider `Cc1ccc(-n2nc(C(C)(C)C)cc2NC(=O)NCc2cc(F)ccc2Oc2ccc3c(cnn3CCO)c2)cc1`, for which the GI50 was > 10 µM and 9.24 µM; the TGI is over 83.9 µM.

In the case of `Cc1cc(C)n(C2=NS(=O)(=O)c3ccccc3N2C)n1`, the TGI was over 100 µM.

On to `COc1cccc2c(=O)c3c(sc12)c(NCCCNCCO)nc1ccccc13`, for which the GI50 is 3.39 µM and the TGI stood at 19.4 µM.

In turn, `O=C1c2cccc3cccc(c23)C(=O)N1O` yielded a TGI of over 100 µM.

`O=C(O)c1ccccc1C(=O)c1ccc2c(c1)Cc1ccccc1-2`: the TGI was over 100 µM.

`C=CC1=C(C)C2=NC1=CC1=NC(=CC3=C(C)C4=C(O)[C@H](C(=O)OC)C(=C5NC(=C2)[C@@H](C)[C@@H]5CCC(=O)O)C4=N3)C(CC)=C1C` yielded a TGI of over 40 µM.

`COc1ccc(Nc2nccc(N3CCN(c4c5ccc(Cl)cc5nc5ccc(OC)cc45)CC3)n2)cc1`: the GI50 was 53.1 µM and the TGI is over 100 µM.

With `CC(=Nc1ccc(S(N)(=O)=O)cc1)c1c(O)[nH]c2ccccc12`, the GI50 is over 12.2 µM and the TGI was over 25 µM.

Consider `CCn1c(-c2nonc2N)nc2ccncc21`, for which the GI50 is over 25 µM and the TGI was over 25 µM.

Regarding `CC(C)[O-].CC(C)[O-].CN(CCN(C)Cc1cc(F)cc(F)c1[O-])Cc1cc(F)cc(F)c1[O-].[Ti+4]`, the GI50 was 0.634 µM and the TGI worked out at 9.09 µM.

On to `CSc1ccc(N(C)c2nc(C)nc3c2CCC3)cc1`, for which the GI50 is under 0.01 µM and the TGI came out at 16.1 µM.

`O=C1/C(=C/c2ccc([N+](=O)[O-])cc2)COc2ccc(O)cc21`: the GI50 was over 100 µM and the TGI was over 100 µM.

Consider `COc1ccc(-c2cnoc2-c2cc(OC)c3c(c2)OCCO3)cc1`, for which the GI50 is 0.0312 µM and the TGI worked out at 2.8 µM.

In the case of `CC(C)Oc1ccc(C(=O)Cn2ccnc2)cc1-n1c(CN2CCN(C(=O)COc3ccc(Cl)cc3)CC2)nc2ccccc2c1=O`, the GI50 is 20 µM and the TGI was determined as 76.2 µM.

For the compound `COc1cccc(COc2cc(-n3cnc4ccccc43)sc2C(N)=O)c1`, the GI50 is over 16.2 µM and the TGI was over 25 µM.

On to `CCN(CC)c1ccc(/C=C/C2=[N+](C)c3ccccc3C2(C)C)c(C)c1`, for which the GI50 was 0.0546 µM and the TGI stood at 0.21 µM.

With `Fc1ccc2nc(-c3cc(-c4ccc5c(c4)OCO5)n[nH]3)[nH]c2c1`, the GI50 is 7.95 µM and the TGI came out at 26.5 µM.

In the case of `COC(=O)c1ccc2c(c1)C(=O)c1c-2n(CCCN=[N+]=[N-])c(=O)c2cc([N+](=O)[O-])ccc12`, the GI50 is 35.3 µM and the TGI is over 100 µM.

For `O=C(c1cccs1)C1NO[N+]([O-])=C1c1cccs1` (centres undefined), the GI50 is 18.6 µM and the TGI came to 32.8 µM.

Compound `CN1c2ccccc2SC2C(c3ccccc3)=NOC21` (centres undefined) returned a TGI of over 100 µM.

With `CCOC(=O)N1CCN(CCCCCOc2ccccc2C2CCCCC2)CC1`, the GI50 is 6.08 µM and the TGI was 19.1 µM.

Turning to `CCCCCCCCCCCCCC[n+]1cccc(C(N)=O)c1`, the GI50 is 1.9 µM and the TGI stood at 8.13 µM.

Another assay relates to SK-MEL-5 melanoma. Description: growth of human tumour cells (NCI), 48 h.
As to `O=C(Cl)C1=C(c2ccccc2)C1c1ccccc1` (centres undefined), the TGI was over 100 µM.

Turning to `O=C(/C=C/c1cccc(O)c1)c1cccc(-n2cc(-c3ccc4ccccc4c3)[nH]c2=O)c1`, the GI50 is 1.16 µM and the TGI came to 2.41 µM.

On to `c1cnn2ncc(-c3ccnc(Nc4ccc5c(c4)OCCO5)n3)c2c1`, for which the GI50 was 0.0651 µM and the TGI came out at 0.632 µM.

On to `Cc1ccc(-n2nc(C(C)(C)C)cc2NC(=O)NCc2cc(F)ccc2Oc2ccc3c(cnn3CCO)c2)cc1`, for which the GI50 is 2.39 µM and 3.15 µM; the TGI was > 10 µM and 13.2 µM.

In the case of `Cc1cc(C)n(C2=NS(=O)(=O)c3ccccc3N2C)n1`, the TGI was over 100 µM.

For `COc1cccc2c(=O)c3c(sc12)c(NCCCNCCO)nc1ccccc13`, the GI50 was 1.69 µM and the TGI came to 3.11 µM.

`O=C1c2cccc3cccc(c23)C(=O)N1O` showed a TGI of over 100 µM.

For `O=C(O)c1ccccc1C(=O)c1ccc2c(c1)Cc1ccccc1-2`, the TGI was over 100 µM.

Compound `C=CC1=C(C)C2=NC1=CC1=NC(=CC3=C(C)C4=C(O)[C@H](C(=O)OC)C(=C5NC(=C2)[C@@H](C)[C@@H]5CCC(=O)O)C4=N3)C(CC)=C1C` yielded a TGI of 3.75 µM.

Consider `COc1ccc(Nc2nccc(N3CCN(c4c5ccc(Cl)cc5nc5ccc(OC)cc45)CC3)n2)cc1`, for which the GI50 was 16.1 µM and the TGI is over 100 µM.

Turning to `CC(=Nc1ccc(S(N)(=O)=O)cc1)c1c(O)[nH]c2ccccc12`, the GI50 is over 25 µM and the TGI is over 25 µM.

With `CCn1c(-c2nonc2N)nc2ccncc21`, the GI50 is over 25 µM and the TGI is over 25 µM.

`CC(C)[O-].CC(C)[O-].CN(CCN(C)Cc1cc(F)cc(F)c1[O-])Cc1cc(F)cc(F)c1[O-].[Ti+4]`: the GI50 is 0.467 µM and the TGI came to 1.67 µM.

Consider `O=C1/C(=C/c2ccc([N+](=O)[O-])cc2)COc2ccc(O)cc21`, for which the GI50 was 12.1 µM and the TGI came to 53.6 µM.

For `COc1ccc(-c2cnoc2-c2cc(OC)c3c(c2)OCCO3)cc1`, the GI50 was 0.0222 µM and the TGI stood at 0.592 µM.

With `CC(C)Oc1ccc(C(=O)Cn2ccnc2)cc1-n1c(CN2CCN(C(=O)COc3ccc(Cl)cc3)CC2)nc2ccccc2c1=O`, the GI50 is 9.78 µM and the TGI came to 23.5 µM.

With `COc1cccc(COc2cc(-n3cnc4ccccc43)sc2C(N)=O)c1`, the GI50 is over 19.4 µM and the TGI was over 25 µM.

Take `CCN(CC)c1ccc(/C=C/C2=[N+](C)c3ccccc3C2(C)C)c(C)c1`: the GI50 was 0.0335 µM and the TGI turned out to be 0.0854 µM.

For `Fc1ccc2nc(-c3cc(-c4ccc5c(c4)OCO5)n[nH]3)[nH]c2c1`, the GI50 is 1.56 µM and the TGI amounted to 3.14 µM.

Turning to `COC(=O)c1ccc2c(c1)C(=O)c1c-2n(CCCN=[N+]=[N-])c(=O)c2cc([N+](=O)[O-])ccc12`, the GI50 is over 100 µM and the TGI was over 100 µM.

Take `O=C(c1cccs1)C1NO[N+]([O-])=C1c1cccs1` (centres undefined): the GI50 is 16.2 µM and the TGI came to 31 µM.

As for `CCOC(=O)N1CCN(CCCCCOc2ccccc2C2CCCCC2)CC1`, the GI50 was 1.52 µM and the TGI is 3.53 µM.

Consider `O=C1c2ccccc2-c2c1c1ccccc1c(=O)n2CCNCCn1c2c(c3ccccc3c1=O)C(=O)c1ccccc1-2`, for which the GI50 was over 25 µM and the TGI was over 25 µM.

Turning to `[2H]c1nc(=Nc2cc(NC(=O)C=C)c(N(C)CCN(C)C)cc2OC)[nH]c(-c2cn(C([2H])([2H])[2H])c3ccccc23)c1[2H]`, the GI50 was 1.64 µM and the TGI stood at 3 µM.

A further assay has as its system NCI-H522 lung. Description: growth of human tumour cells (NCI), 48 h.
`O=C(Cl)C1=C(c2ccccc2)C1c1ccccc1` (centres undefined): the TGI was over 100 µM.

Consider `O=C(/C=C/c1cccc(O)c1)c1cccc(-n2cc(-c3ccc4ccccc4c3)[nH]c2=O)c1`, for which the GI50 is 1.29 µM and the TGI was determined as 2.9 µM.

The values are drawn from PubChem BioAssay (NCI).
